{"source": "ChEMBL document CHEMBL4219169", "about": "“Sulfoximines as potent RORγ inverse agonists” (Bioorg Med Chem Lett, 2018)", "key": {"Salmonella typhimurium": {"tested_on": "Salmonella typhimurium", "experiment": "Genotoxicity in Salmonella typhimurium TA100 in absence of aroclor-1254-induced rat S9 fraction by Ames test", "assay_type": "toxicity, organism-based", "conditions": "salmonella enterica subsp. enterica serovar typhimurium"}, "[1]": {"molecular_target": "T1, Peroxisome proliferator-activated receptor gamma (Homo sapiens, UniProt P37231)", "T1 sequence (P37231 whole entry)": "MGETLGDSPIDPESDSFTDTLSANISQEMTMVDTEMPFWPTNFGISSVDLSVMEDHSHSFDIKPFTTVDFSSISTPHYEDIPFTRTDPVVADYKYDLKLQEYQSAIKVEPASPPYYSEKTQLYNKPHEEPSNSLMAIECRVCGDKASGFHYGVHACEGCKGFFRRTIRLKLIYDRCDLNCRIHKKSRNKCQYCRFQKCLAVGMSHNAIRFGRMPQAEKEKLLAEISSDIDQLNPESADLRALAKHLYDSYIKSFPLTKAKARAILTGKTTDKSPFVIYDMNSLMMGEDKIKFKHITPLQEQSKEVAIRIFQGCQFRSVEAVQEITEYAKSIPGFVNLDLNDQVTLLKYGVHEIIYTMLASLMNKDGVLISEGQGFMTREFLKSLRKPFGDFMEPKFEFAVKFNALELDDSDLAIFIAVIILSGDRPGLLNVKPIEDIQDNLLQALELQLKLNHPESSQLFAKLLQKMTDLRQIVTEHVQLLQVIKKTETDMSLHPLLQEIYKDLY", "description": "Activity at PPARgamma (unknown origin) expressed in human HeLa-derived HG5LN cells transfected with the GAL4 DNA-binding domain fused to the PPARgamma ligand-binding domain assessed as inhibition of transcriptional activity after 18 hrs by luminescence-based luciferase reporter gene assay"}, "[2]": {"molecular_target": "T2, Retinoic acid receptor gamma (Homo sapiens, UniProt P13631)", "T2 sequence (P13631 whole entry)": "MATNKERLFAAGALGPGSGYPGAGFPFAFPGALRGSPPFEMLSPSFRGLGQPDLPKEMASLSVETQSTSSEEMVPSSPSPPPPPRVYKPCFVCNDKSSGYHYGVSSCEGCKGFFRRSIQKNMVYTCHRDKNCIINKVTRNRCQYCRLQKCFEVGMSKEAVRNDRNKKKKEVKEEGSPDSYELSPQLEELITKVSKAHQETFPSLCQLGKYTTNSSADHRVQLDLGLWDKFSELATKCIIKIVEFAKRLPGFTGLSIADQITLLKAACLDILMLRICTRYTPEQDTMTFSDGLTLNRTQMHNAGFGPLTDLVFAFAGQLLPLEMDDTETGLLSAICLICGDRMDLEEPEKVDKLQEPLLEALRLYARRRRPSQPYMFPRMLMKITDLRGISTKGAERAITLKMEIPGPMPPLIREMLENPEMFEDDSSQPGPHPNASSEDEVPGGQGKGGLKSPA", "experiment": "Inverse agonist activity at RARgamma (unknown origin) expressed in human HeLa-derived HG5LN cells transfected with the GAL4 DNA-binding domain fused to the RARgamma ligand-binding domain assessed as inhibition of transcriptional activity after 18 hrs by luminescence-based luciferase reporter gene assay", "assay_type": "cell-based"}}}
{"smiles": "CCc1ccc(N(CC(C)C)S(=O)(=O)c2ccc(OCC3CCOCC3)c([S@@](C)(=N)=O)c2)cc1", "values": [{"measurement": "Activity", "setting": "Salmonella typhimurium", "result": "Non-Toxic"}, {"measurement": "Kd", "setting": "[1]", "result": "> 10", "unit": "µM"}, {"measurement": "IC50", "setting": "[2]", "result": "> 10", "unit": "µM"}]}
